Experimental data: US20090062369A1, “USE OF SECRETORY PHOSPHOLIPASE A2 (SPLA2) INHIBITORS TO DECREASE SPLA2 LEVELS” (priority 2007, published 2009)

Test system: serum sPLA2
Test: Effect of twice-a-day oral A-002 on serum sPLA2 levels in subjects with stable coronary artery disease (Example 6)
Type: in vivo, human
Description: The protocol for preparing standard curve, test, and quality control samples for use in the assay disclosed herein is set forth in Example 5. Samples are prepared according to this protocol, then loaded in duplicate onto a plate (Cayman catalog no. 485002 or equivalent) that has been pre-coated with a monoclonal sPLA2 antibody (“capture antibody”) that specifically binds sPLA2. In certain embodiments, the capture antibody may interact with a specific form of sPLA2, such as for example sPLA2 type IIA.
sPLA2 acetylcholinesterase:Fab′ conjugate (AChE:Fab′) (“conjugate”) (Cayman catalog no. 485000 or equivalent) is reconstituted in EIA buffer (Cayman catalog no. 400060 or equivalent). Cayman EIA buffer is 1M phosphate, pH 7.0, 1% BSA, 4M NaCl, 10 mM EDTA, and 0.1% sodium azide. Reconstituted conjugate is added to each well of the plate. The conjugate binds a different sPLA2 epitope than the capture antibody, allowing the capture antibody and the conjugate to form a “sandwich” that is immobilized on the plate. Excess reagents are washed away, and the plate is covered and incubated overnight at 2-8° C.
Prior to development, the wells are washed five to six times with wash buffer (Cayman catalog no. 400062 or equivalent). To develop the plate, Ellman's Reagent (Cayman catalog no. 400050 or equivalent) is reconstituted in water and added to each well according to manufacturer instructions. The reconstituted Ellman's Reagent must be used the same day it is prepared because it is unstable. Ellman's Reagent contains an AChE substrate. Specifically, Ellman's Reagent contains acetylthiocholine and 5,5′-dithio-bis-(2-nitrobenzoic acid). Hydrolysis of acetylthiocholine by acetylcholinesterase produces thiocholine, which reacts with 5,5′-dithio-bis-(2-nitrobenzoic acid) to produce 5-thio-2-nitrobenzoic acid. 5-thio-2-nitrobenzoic acid has a strong absorbance at 412 nm. The intensity of absorbance at this wavelength is directly proportional to the concentration of bound conjugate, which is in turn is directly proportional to the concentration of sPLA2 present (Absorbance a [AChE:Fab′ conjugate] α [sPLA2]). During the development step, the plate is shaken, preferably in the dark. In certain embodiments the development time for the assay is 0.5 to 3 hours, preferably 1 to 1.5 hours. At the end of the development period, the high sPLA2 standards should have greater yellow color development than the zero standards. Absorbance of each well is measured at 400-420 nm using a micro-well plate reader. In certain embodiments, absorbance is measured at about 405 nm.
Absorbance readings for duplicate wells are averaged, and the relative standard deviation and % CV are calculated. Standard curve data are used to generate a four parameter curve, and quality control and test samples are measured against the appropriate standard curve (i.e., the standard curve with the same serum content). In order for a test to be considered valid, variation between duplicate wells should be no more than about 25%, and negative controls (blanks) for each standard curve should have a mean absorbance of less than about 0.3.
The method disclosed herein for measuring sPLA2 levels in serum was utilized to determine the effect of administering certain sPLA2 inhibitors on sPLA2 levels in 84 human subjects. The subjects included 24 subjects with diabetes, 32 subjects with metabolic syndrome, and 75 subjects receiving statin treatment. Subjects were administered the sPLA2 inhibitor A-002, a prodrug form of A-001, twice a day at varying dosages from 50 to 500 mg. The structures of A-002and A-001 are set forth below. At two weeks and four weeks after the first administration, sPLA2 levels were measured and compared to pre-administration baseline levels.
84 subjects with stable coronary artery disease were randomized to receive placebo or A-002 via oral administration twice a day over a four week administration period. […]

[1] = 100 mg, statin subgroup of ITT population
[2] = 250 mg, diabetes subgroup of ITT population
[3] = 250 mg, non-diabetes subgroup of ITT population
[4] = 250 mg, statin subgroup of ITT population
[5] = 500 mg, diabetes subgroup of ITT population
[6] = 500 mg, non-diabetes subgroup of ITT population

Q: What does the source list for CCc1c(C(=O)C(N)=O)c2c(OCC(=O)OC)cccc2n1Cc1ccccc1 [A-002, [[3-(2-Amino-1,2-dioxoethyl)-2-ethyl-1-(phenylmethyl)-1H-indol-4-yl]oxy]acetic acid methyl ester]?
A: sPLA2 Change from baseline at week 4, Range [1]: -5.70 to 0.00 ng/mL; sPLA2 level, Baseline, Mean [1]: 2.72 ng/mL; sPLA2 level, Baseline, Median [1]: 2.65 ng/mL; sPLA2 level, Baseline, Range [1]: 0.05 to 6.00 ng/mL; sPLA2 level, Week 2, Mean [1]: 0.66 ng/mL; sPLA2 level, Week 2, Median [1]: 0.40 ng/mL; sPLA2 level, Week 2, Range [1]: 0.05 to 2.90 ng/mL; sPLA2 level, Week 4, Mean [1]: 0.44 ng/mL; sPLA2 level, Week 4, Median [1]: 0.40 ng/mL; sPLA2 level, Week 4, Range [1]: 0.05 to 1.00 ng/mL; sPLA2 Change from baseline at week 2, Mean (250 mg, ITT population): -2.02 ng/mL; sPLA2 Change from baseline at week 2, Median (250 mg, ITT population): -1.90 ng/mL; sPLA2 Change from baseline at week 2, Range (250 mg, ITT population): -4.20 to -0.20 ng/mL; sPLA2 Change from baseline at week 4, Mean (250 mg, ITT population): -2.13 ng/mL; sPLA2 Change from baseline at week 4, Median (250 mg, ITT population): -2.20 ng/mL; sPLA2 Change from baseline at week 4, Range (250 mg, ITT population): -4.20 to 0.20 ng/mL; sPLA2 level, Baseline, Mean (250 mg, ITT population): 2.88 ng/mL; sPLA2 level, Baseline, Median (250 mg, ITT population): 2.40 ng/mL; sPLA2 level, Baseline, Range (250 mg, ITT population): 1.30 to 5.20 ng/mL; sPLA2 level, Week 2, Mean (250 mg, ITT population): 0.73 ng/mL; sPLA2 level, Week 2, Median (250 mg, ITT population): 0.35 ng/mL; sPLA2 level, Week 2, Range (250 mg, ITT population): 0.05 to 4.40 ng/mL; sPLA2 level, Week 4, Mean (250 mg, ITT population): 0.61 ng/mL; sPLA2 level, Week 4, Median (250 mg, ITT population): 0.35 ng/mL; sPLA2 level, Week 4, Range (250 mg, ITT population): 0.05 to 2.30 ng/mL; sPLA2 Change from baseline at week 2, Mean [2]: -1.83 ng/mL; sPLA2 Change from baseline at week 2, Median [2]: -1.10 ng/mL; sPLA2 Change from baseline at week 2, Range [2]: -4.20 to -0.20 ng/mL; sPLA2 Change from baseline at week 4, Mean [2]: -1.75 ng/mL; sPLA2 Change from baseline at week 4, Median [2]: -1.25 ng/mL; sPLA2 Change from baseline at week 4, Range [2]: −4.20 to +0.20 ng/ml; sPLA2 level, Baseline, Mean [2]: 3.00 ng/mL; sPLA2 level, Baseline, Median [2]: 3.00 ng/mL; sPLA2 level, Baseline, Range [2]: 1.30 to 4.70 ng/mL; sPLA2 level, Week 2, Mean [2]: 0.60 ng/mL; sPLA2 level, Week 2, Median [2]: 0.50 ng/mL; sPLA2 level, Week 2, Range [2]: 0.20 to 1.10 ng/mL; sPLA2 level, Week 4, Mean [2]: 0.68 ng/mL; sPLA2 level, Week 4, Median [2]: 0.50 ng/mL; sPLA2 level, Week 4, Range [2]: 0.05 to 1.50 ng/mL; sPLA2 Change from baseline at week 2, Mean [3]: -2.08 ng/mL; sPLA2 Change from baseline at week 2, Median [3]: -2.00 ng/mL; sPLA2 Change from baseline at week 2, Range [3]: -3.80 to -0.80 ng/mL; sPLA2 Change from baseline at week 4, Mean [3]: -2.25 ng/mL; sPLA2 Change from baseline at week 4, Median [3]: -2.20 ng/mL; sPLA2 Change from baseline at week 4, Range [3]: -3.50 to -1.20 ng/mL; sPLA2 level, Baseline, Mean [3]: 2.84 ng/mL; sPLA2 level, Baseline, Median [3]: 2.40 ng/mL; sPLA2 level, Baseline, Range [3]: 1.50 to 5.20 ng/mL; sPLA2 level, Week 2, Mean [3]: 0.76 ng/mL; sPLA2 level, Week 2, Median [3]: 0.30 ng/mL; sPLA2 level, Week 2, Range [3]: 0.05 to 4.40 ng/mL; sPLA2 level, Week 4, Mean [3]: 0.60 ng/mL; sPLA2 level, Week 4, Median [3]: 0.30 ng/mL; sPLA2 level, Week 4, Range [3]: 0.05 to 2.30 ng/mL; sPLA2 Change from baseline at week 2, Mean [4]: -2.01 ng/mL; sPLA2 Change from baseline at week 2, Median [4]: -1.65 ng/mL; sPLA2 Change from baseline at week 2, Range [4]: -4.20 to -0.20 ng/mL; sPLA2 Change from baseline at week 4, Mean [4]: -2.13 ng/mL; sPLA2 Change from baseline at week 4, Median [4]: -2.15 ng/mL; sPLA2 Change from baseline at week 4, Range [4]: −4.20 to +0.20 ng/ml; sPLA2 level, Baseline, Mean [4]: 2.84 ng/mL; sPLA2 level, Baseline, Median [4]: 2.40 ng/mL; sPLA2 level, Baseline, Range [4]: 1.30 to 5.20 ng/mL; sPLA2 level, Week 2, Mean [4]: 0.68 ng/mL; sPLA2 level, Week 2, Median [4]: 0.30 ng/mL; sPLA2 level, Week 2, Range [4]: 0.05 to 4.40 ng/mL; sPLA2 level, Week 4, Mean [4]: 0.57 ng/mL; sPLA2 level, Week 4, Median [4]: 0.30 ng/mL; sPLA2 level, Week 4, Range [4]: 0.05 to 2.30 ng/mL; sPLA2 Change from baseline at week 2, Mean (500 mg, ITT population): -2.84 ng/mL; sPLA2 Change from baseline at week 2, Median (500 mg, ITT population): -2.95 ng/mL; sPLA2 Change from baseline at week 2, Range (500 mg, ITT population): -4.80 to -0.55 ng/mL; sPLA2 Change from baseline at week 4, Mean (500 mg, ITT population): -2.87 ng/mL; sPLA2 Change from baseline at week 4, Median (500 mg, ITT population): -2.95 ng/mL; sPLA2 Change from baseline at week 4, Range (500 mg, ITT population): -4.80 to -0.55 ng/mL; sPLA2 level, Baseline, Mean (500 mg, ITT population): 2.96 ng/mL; sPLA2 level, Baseline, Median (500 mg, ITT population): 2.80 ng/mL; sPLA2 level, Baseline, Range (500 mg, ITT population): 0.60 to 5.40 ng/mL; sPLA2 level, Week 2, Mean (500 mg, ITT population): 0.18 ng/mL; sPLA2 level, Week 2, Median (500 mg, ITT population): 0.05 ng/mL; sPLA2 level, Week 2, Range (500 mg, ITT population): 0.05 to 0.60 ng/mL; sPLA2 level, Week 4, Mean (500 mg, ITT population): 0.15 ng/mL; sPLA2 level, Week 4, Median (500 mg, ITT population): 0.05 ng/mL; sPLA2 level, Week 4, Range (500 mg, ITT population): 0.05 to 0.60 ng/mL; sPLA2 Change from baseline at week 2, Mean [5]: -3.75 ng/mL; sPLA2 Change from baseline at week 2, Median [5]: -3.50 ng/mL; sPLA2 Change from baseline at week 2, Range [5]: -4.80 to -2.95 ng/mL; sPLA2 Change from baseline at week 4, Mean [5]: -3.82 ng/mL; sPLA2 Change from baseline at week 4, Median [5]: -3.70 ng/mL; sPLA2 Change from baseline at week 4, Range [5]: -4.80 to -2.95 ng/mL; sPLA2 level, Baseline, Mean [5]: 3.73 ng/mL; sPLA2 level, Baseline, Median [5]: 3.40 ng/mL; sPLA2 level, Baseline, Range [5]: 2.70 to 5.40 ng/mL; sPLA2 level, Week 2, Mean [5]: 0.32 ng/mL; sPLA2 level, Week 2, Median [5]: 0.30 ng/mL; sPLA2 level, Week 2, Range [5]: 0.05 to 0.60 ng/mL; sPLA2 level, Week 4, Mean [5]: 0.25 ng/mL; sPLA2 level, Week 4, Median [5]: 0.10 ng/mL; sPLA2 level, Week 4, Range [5]: 0.05 to 0.60 ng/mL; sPLA2 Change from baseline at week 2, Mean [6]: -2.61 ng/mL; sPLA2 Change from baseline at week 2, Median [6]: -2.68 ng/mL; sPLA2 Change from baseline at week 2, Range [6]: -4.40 to -0.55 ng/mL; sPLA2 Change from baseline at week 4, Mean [6]: -2.63 ng/mL; sPLA2 Change from baseline at week 4, Median [6]: -2.53 ng/mL; sPLA2 Change from baseline at week 4, Range [6]: -4.35 to -0.55 ng/mL; sPLA2 level, Baseline, Mean [6]: 2.73 ng/mL; sPLA2 level, Baseline, Median [6]: 2.70 ng/mL; sPLA2 level, Baseline, Range [6]: 0.60 to 4.60 ng/mL; sPLA2 level, Week 2, Mean [6]: 0.15 ng/mL; sPLA2 level, Week 2, Median [6]: 0.05 ng/mL
